Here are results for seven compounds from patent publication US10202343B2, “MIF modulators” (YALE UNIVERSITY, priority 2008, dated 2019).

Read-outs that look alike come from different tables or passages of the source.

One data set deals with T1, MIF tautomerase activity (Homo sapiens, UniProt P14174).
T1 sequence (P14174 2-115 limits assumed): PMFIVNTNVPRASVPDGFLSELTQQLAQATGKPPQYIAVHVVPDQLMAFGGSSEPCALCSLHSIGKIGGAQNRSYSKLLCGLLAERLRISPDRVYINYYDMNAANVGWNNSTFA
Particulars: literature, Cheng & Al-Abed 2006; cited from earlier work.

A further data set concerns ovarian cancer cell line. The experiment in a line: growth of an ovarian cancer cell line. Type of data set: cell-based. An excerpt: KSP inhibitor ARRY-520 is used as a substitute for Paclitaxel in Type I ovarian cancer cells. J Transl Med. 7:63.
Data set [1] concerns the target T2, Human MIF (MIF tautomerase activity) (Homo sapiens, UniProt P14174).
T2 construct: made in house
T2 sequence (P14174 2-115 limits assumed): T1 sequence (P14174 2-115 limits assumed)
The experiment in a line: HPP tautomerase assay. Type of data set: biochemical.
Description: The HPP assay used was adapted to the microtiter plate format. […] Dilutions of the enzyme were prepared in 50 mM sodium phosphate buffer, 1 mM EDTA, pH 6.5. HPP was obtained from Aldrich. A stock solution of 60 mM HPP in ethanol is prepared and kept for maximally 4 hours on ice. The working solution (600 μM) of the substrate was prepared by diluting an aliquot of the stock solution with 50 mM sodium phosphate buffer, 1 mM EDTA, pH 6.5. […] Inhibitor and enzyme solutions were pipetted manually using an Eppendorf 12-channel pipette. Addition of substrate to start the reaction was performed with an Igel 96 pipetting station (OpalJena, Jena, Germany), which allows simultaneous addition of fluid to all 96 wells of the plates. Optical density (OD) was determined using a SPECTRAmax 250 reader (Molecular Devices). The reader was operated with the SoftmaxPro 2.6.1 software. Assay: Three wells of the microtiter plates were filled with buffer only, to allow for blanking. […] The last step was performed using the 96-channel pipetting device. The plate was then immediately (i.e. within a few seconds) transferred manually to the SPECTRAmax 250 reader and the optical density was determined (310 nm). From the data obtained, IC50 values were calculated using Excel® and XLfit® software.

Data set [2] relates to MIF-dependent signal transduction (ERK1/2 phosphorylation). Description: MIF-dependent signal transduction in cells (ERK1/2 phosphorylation). The class given is cell-based. The settings on record: compared to isoxazoline-1. Here is the method:
Two additional assays were performed on compounds according to the present invention. In the first, MIF-dependent signal transduction in cells as evidenced by a reduction in ERK1/2 phosphorylation and its inhibitory action is compared to the known small molecule MIF antagonist, isoxazoline-1 following the assay reported in Leng L., Metz C, Fang Y, Xu J, Donnelly S, Baugh J, Delonery T, Chen Y, Mitchell R A, and Bucala R. 2003. MIF Signal Transduction Initiated by Binding to CD74. J Exp Med 197, 1467-1476.

Data set [3] has as its target T3, MIF-CD74 Binding (biotin-labeled recombinant human MIF, recombinant human MIF receptor CD74 ectodomain) (Homo sapiens, UniProt P14174).
T3 sequence (P14174 2-115 limits assumed): T1 sequence (P14174 2-115 limits assumed)
Description: MIF-CD74 binding (capture) assay. Particulars: for CD74 % MaxInhib: number before @.
Description: The biologically more significant assay is a “capture” assay using immobilized, recombinant MIF receptor ectodomain and biotinylated recombinant MIF (Leng, L., et al. (2003), MIF signal transduction initiated by binding to CD74. J. Exp. Med. 197, 1467-1476). This allows measurement of the inhibition or enhancement of the binding of MIF to its receptor induced by an addend.
Coat 96 well plates with 60 μl/well of 26 ng/μl purified, recombinant human MIF receptor (CD74 ectodomain or CD74^73-232). Incubate at 4° C. overnight. Wash the plate 4 times with 250 μl/well TTBS and add 100 μl/well of superblock (Pierce, Ill.). Incubate at 4° C. overnight. Remove the superblock and add mixture of compound and biotin-labeled recombinant human MIF incubated at 4° C. overnight. (Each compound was pre-incubated at various concentrations with 2 ng/μl 0.2 μM biotin-MIF for 2 hours at room temperature in the dark). After washing the plate 4 times with 250 μl/well TTBS, 60 μl/well of Strepavidin-AP (R&D Systems) was added and incubated for 1 hr at room temperature in the dark. Wells were then washed as before and 60 μl/well of PNPP (Sigma) was added, allowing the color to develop in the dark at room temperature and then read at OD405 nm.

The conditions of data set [4]: press release, cited from earlier work.

In the case of `CC(C)(C)OC(=O)C[C@H]1CC(c2ccc(O)c(F)c2)=NO1` [(R)-17], the “potency (inhibition of MIF tautomerase activity)” value on MIF tautomerase activity was 0.55 µM.

For `O=c1oc2ccc(F)cc2n1Cc1cccc(O)c1` [MIF-108], the “activity in the ovarian cancer assay (growth inhibition)” value (“activity … (growth inhibition)” below) in the data set on ovarian cancer cell line is on record as “significant activity”.

On to `Cc1ccc2oc(=O)n(Cc3cccc(O)c3)c2c1` [Compound 098], for which the “activity … (growth inhibition)” value in the data set with ovarian cancer cell line is listed as “significant activity”. In addition, in data set [1] (Table 4, read-out: HPP IC50), the IC50 amounted to 0.01 µM. Further, in data set [2], the “inhibitory action on MIF-dependent ERK1/2 phosphorylation” value was “significant inhibitory action”. Also, the “concentration of CD74 % MaxInhib (number after @)” value (from here on “concentration of CD74 % MaxInhib”) in data set [3] (Table 4) stood at 0.0078 µM.

Regarding `N#Cc1ccc2c(=O)n(-c3ccc(Cl)cc3)sc2c1` [Compound 37], the “activity … (growth inhibition)” value with ovarian cancer cell line is reported as “significant activity”. Moreover, the IC50 was determined as 3.1 µM in data set [1] (Table 3, read-out: HPP IC50) and 3.1 µM in data set [1] (Table 6, data cell c7, read-out: HPP IC50). The “Capture % Max. Inhib.” value in data set [3] (Table 3) was 16%. Moreover, in data set [3] (Table 6, data cell c8), the “CD74 % MaxInhib” value stood at 16%.

Consider `Ic1cc(-c2ccccc2)ncn1` [Compound 4-IPP, 4-iodo-6-phenylpyrimidine, reference compound], for which the anti-tumor activity result in data set [4] (by blocking tumor-specific angiogenesis) is reported as “exhibits anti-tumor activity”. Besides, the safety profile entry in data set [4] (laboratory studies) was “favorable safety profile”. Moreover, in data set [1] (read-out: inhibitor in the HPP tautomerase assay), the IC50 was 4.5 µM. Also, the “activity in the capture assay” value in data set [3] is “inactive”.

On to `Cc1ccc2c(c1)CCN2C(=O)c1cc2ccccc2o1` [MIF-094], for which the IC50 in data set [1] (Table 14, read-out: HPP IC50) came to 760 µM. Moreover, in data set [3] (Table 14), the “concentration of CD74 % MaxInhib” value was 0.95 µM and the “CD74 % MaxInhib” value stood at 33%.

Take `O=C1c2ccc(F)cc2CN1c1ccc(Cl)cc1` [MIF-126]: the “concentration of HPP % MaxInhib (number after @)” value in data set [1] (Table 9) was found to be 100 µM. Moreover, the “HPP % MaxInhib” value in data set [1] (Table 9, number before @) was found to be 32%. In data set [3] (Table 9), the “concentration of CD74 % MaxInhib” value was 0.078 µM and the “CD74 % MaxInhib” value worked out at 7%.
